Test results reported in paper PMC4773067 (PLoS ONE, 2016).
Entries after “also recorded” stand apart in the source; their conditions may differ.

Columns and labels:
[1] = tested on: hSR-transfected CHO-K1 cells; experiment: Antagonist cAMP response (coincubation with hSCT, HTRF-LANCE cAMP assay); assay type: cell-based, human; conditions: Table 4; cAMP response with 5 nM hSCT plus analog 10^-12 to 10^-6 M, 30 min
Procedure: Detection was subsequently performed according to the manufacturer’s instructions.
(§1) All in vitro results were analyzed in quadruplicate, and the data are expressed as the means ± SEM. Significant differences were identified using Student’s t-test at p<0.05. The dose response was analyzed using GraphPad Prism 5.0 software with a variable slope (four parameters).

[2] = tested on: hSR-transfected CHO-K1 cells; experiment: Agonist cAMP response (HTRF-LANCE cAMP assay); assay type: cell-based, human; conditions: for Agonistic response: Table 4, cAMP response at various doses
Procedure: The cAMP responses in hSR-transfected CHO-K1 cells were detected using the HTRF-LANCE® cAMP assay kit. After 48 h of transfection, the cells were detached by nonenzymatic treatment using Versene. The cells were counted and processed according to the manufacturer’s instructions to measure the cAMP response following cell treatment with the secretin analogs. hSCT was used as a positive control. The TRF signals (340 nm excitation/665 nm emission) were detected using a VICTOR X4 spectrofluorometer (PerkinElmer), and the cAMP concentration was determined using a standard curve.
as §1

[3] = biological target: SNAPtag-hSR (human secretin receptor) in transfected CHO-K1 cells (Homo sapiens, UniProt P47872); experiment: FRET competitive binding assay
Sequence of SNAPtag-hSR (human secretin receptor) in transfected CHO-K1 cells (P47872 23-440): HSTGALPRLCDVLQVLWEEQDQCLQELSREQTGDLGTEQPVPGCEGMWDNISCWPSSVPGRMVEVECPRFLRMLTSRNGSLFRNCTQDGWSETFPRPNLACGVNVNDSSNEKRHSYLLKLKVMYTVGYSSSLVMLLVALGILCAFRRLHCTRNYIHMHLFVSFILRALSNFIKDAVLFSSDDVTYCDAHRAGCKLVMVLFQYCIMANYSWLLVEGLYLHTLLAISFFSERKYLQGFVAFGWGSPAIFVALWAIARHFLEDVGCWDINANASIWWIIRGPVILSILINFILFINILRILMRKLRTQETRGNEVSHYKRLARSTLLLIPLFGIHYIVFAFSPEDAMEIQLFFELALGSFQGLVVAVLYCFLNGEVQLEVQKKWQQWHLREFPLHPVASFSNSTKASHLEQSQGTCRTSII

[4] = biological target: human secretin receptor (human) (UniProt P47872); experiment: FRET or BRET; competitive binding, dose response 10^-12 M to 10^-4 M of unlabelled peptide against 500 nM labelled hSCT on CHO-K1 cells with Lumi4-Tb-labelled SNAPtag-hSR, 4–8°C, 1 h; nonspecific signal with 100 μM unlabelled hSCT subtracted; four-parameter fit
Sequence of human secretin receptor (human) (P47872 23-440): as above

Molecule | Antagonistic response [1] | Agonistic response [2] | agonist activity at hSR, cAMP (in words) [2] | in vitro binding to hSR (in words) [3] | IC50 [4]
H2N-His-Ser-Asp-Gly-Thr-Phe-Thr-Ser-Glu-Leu-Ser-Arg-Leu- COOH [Analog 19, Nt-SCT] | Absent | Absent |  |  | 
H2N-His-Ser-D-Asp-Gly-Thr-Phe-Thr-Ser-Glu-Leu-Ser-Arg-Leu-Arg-Glu-Gly-Ala-Arg-Leu-Gln-Arg-Leu-Leu-Gln-Gly-Leu-Val- COOH [Analog 8, h[D-Asp^3]SCT] | Absent | Absent |  |  | 
H2N-Leu-Ser-Asp-Gly-Thr-Phe-Thr-Ser-Glu-Leu-Ser-Arg-Leu-Arg-Glu-Gly-Ala-Arg-Leu-Gln-Arg-Leu-Leu-Gln-Gly-Leu-Val- COOH [Analog 3, h[Leu^1]SCT] | Absent | Absent |  |  | 
H2N-His-Val-Asp-Gly-Leu-Phe-Thr-Ser-Glu-Leu-Ser-Lys-Leu-Arg-Gly-Ser-Ala-Val-Ala-Arg-Ser-Phe-Thr-Asn-Ala-Val-Leu- COOH [Analog 18, Coelacanths SCT] | Absent | Absent |  |  | 
H2N-His-Ser-Asp-Gly-Leu-Phe-Thr-Ser-Glu-Tyr-Ser-Lys-Met-Arg-Gly-Asn-Ala-Gln-Val-Gln-Lys-Phe-Ile-Gln-Asn-Leu-Met- COOH [Analog 17, Chicken SCT] | Absent | Absent |  |  | 
H2N-His-Ser-Asp-p-Cl,D-Phe^4-Thr-Phe-Thr-Ser-Glu-Leu-Ser-Arg-Leu-Arg-Glu-Gly-Ala-Arg-Leu-Gln-Arg-Leu-Leu-Gln-Gly-Leu-Val- COOH [Analog 4, h[(p-Cl,D-Phe^4]SCT] | Absent | Absent |  |  | 
CC(C)C[C@H](NC(=O)CNC(=O)[C@H](CCC(N)=O)NC(=O)[C@H](CC(C)C)NC(=O)[C@H](CC(C)C)NC(=O)[C@H](CCCNC(=N)N)NC(=O)[C@H](CCC(N)=O)NC(=O)[C@H](CC(C)C)NC(=O)[C@H](CCCNC(=N)N)NC(=O)[C@H](C)NC(=O)[C@H](CO)NC(=O)[C@H](CC(=O)O)NC(=O)[C@H](CCC(N)=O)NC(=O)[C@H](CC(C)C)NC(=O)[C@H](CCCNC(=N)N)NC(=O)[C@H](CO)NC(=O)[C@H](CC(C)C)NC(=O)[C@H](CCC(=O)O)NC(=O)[C@H](CO)NC(=O)[C@@H](NC(=O)[C@H](Cc1ccccc1)NC(=O)[C@@H](NC(=O)CNC(=O)[C@H](CC(=O)O)NC(=O)[C@H](CO)NC(=O)[C@@H](N)Cc1c[nH]cn1)[C@@H](C)O)[C@@H](C)O)C(=O)N[C@H](C(=O)O)C(C)C [Analog 15, Rat SCT] | Absent | Present | agonist |  | 
human pituitary adenylate cyclase-activating polypeptide [hPACAP, reference compound] |  |  | could also activate hSR to produce cAMP; also recorded: only at high concentrations | only at high concentrations | 
H2N-Phe-Thr-Ser-Glu-Leu-Ser-Arg-Leu-Arg-Glu-Gly-Ala-Arg-Leu-Gln-Arg-Leu-Leu-Gln-Gly-Leu-Val- COOH [Analog 6, hSCT(6–27)] | Absent | Absent |  |  | 
human secretin (peptide) |  |  |  |  | 1.63 nM
H2N-His-Ser-Asp-Pro-Thr-Phe-Thr-Ser-Glu-Leu-Ser-Arg-Leu-Arg-Glu-Gly-Ala-Arg-Leu-Gln-Arg-Leu-Leu-Gln-Gly-Leu-Val- COOH [Analog 13, h[Pro^4]SCT] | Absent | Absent |  |  | 
human vasoactive peptide [hVIP, reference compound] |  |  | could also activate hSR to produce cAMP; also recorded: only at high concentrations |  | 
H2N-His-Val-Asp-Gly-Arg-Phe-Thr-Ser-Glu-Phe-Ser-Arg-Ala-Arg-Gly-Ser-Ala-Ala-Ile-Arg-Lys-Ile-Ile-Asn-Ser-Ala-Leu-Ala- COOH [Analog 16, Xenopus SCT] | Absent | Absent |  |  | 
H2N-Arg-Glu-Gly-Ala-Arg-Leu-Gln-Arg-Leu-Leu-Gln-Gly-Leu-Val- COOH [Analog 20, Ct-SCT] | Absent | Absent |  |  | 
H2N-Tic-Ser-Asp-Gly-Thr-Phe-Thr-Ser-Glu-Leu-Ser-Arg-Leu-Arg-Glu-Gly-Ala-Arg-Leu-Gln-Arg-Leu-Leu-Gln-Gly-Leu-Val- COOH [Analog 9, h[Tic^1]SCT] | Absent | Absent |  |  | 
H2N-Ala-Ser-Asp-Gly-Thr-Phe-Thr-Ser-Glu-Leu-Ser-Arg-Leu-Arg-Glu-Gly-Ala-Arg-Leu-Gln-Arg-Leu-Leu-Gln-Gly-Leu-Val- COOH [Analog 2, h[Ala^1]SCT] | Absent | Absent |  |  | 
H2N-His-Pro-Asp-Gly-Thr-Phe-Thr-Ser-Glu-Leu-Ser-Arg-Leu-Arg-Glu-Gly-Ala-Arg-Leu-Gln-Arg-Leu-Leu-Gln-Gly-Leu-Val- COOH [Analog 1, h[Pro^2]SCT] | Absent | Absent |  |  | 
H2N-Orn-Ser-Asp-Gly-Thr-Phe-Thr-Ser-Glu-Leu-Ser-Arg-Leu-Arg-Glu-Gly-Ala-Arg-Leu-Gln-Arg-Leu-Leu-Gln-Gly-Leu-Val- COOH [Analog 12, h[Orn^1]SCT] | Absent | Absent |  |  | 
H2N-His-Ser-Asp-Cha-Thr-Phe-Thr-Ser-Glu-Leu-Ser-Arg-Leu-Arg-Glu-Gly-Ala-Arg-Leu-Gln-Arg-Leu-Leu-Gln-Gly-Leu-Val- COOH [Analog 7, h[Cha^4]SCT] | Absent | Absent |  |  | 
H2N-His-Ser-pCO2HPhe-Gly-Thr-Phe-Thr-Ser-Glu-Leu-Ser-Arg-Leu-Arg-Glu-Gly-Ala-Arg-Leu-Gln-Arg-Leu-Leu-Gln-Gly-Leu-Val- COOH [Analog 11, h[pCO2H-Phe^3]SCT] | Absent | Absent |  |  | 
CC(C)C[C@H](NC(=O)CNC(=O)[C@H](CCC(N)=O)NC(=O)[C@H](CC(C)C)NC(=O)[C@H](CC(C)C)NC(=O)[C@H](CCCNC(=N)N)NC(=O)[C@H](CCC(N)=O)NC(=O)[C@H](CC(C)C)NC(=O)[C@H](CCCNC(=N)N)NC(=O)[C@H](C)NC(=O)CNC(=O)[C@H](CCC(=O)O)NC(=O)[C@H](CCCNC(=N)N)NC(=O)[C@H](CC(C)C)NC(=O)[C@H](CCCNC(=N)N)NC(=O)[C@H](CO)NC(=O)[C@H](CC(C)C)NC(=O)[C@H](CCC(=O)O)NC(=O)[C@H](CO)NC(=O)[C@@H](NC(=O)[C@H](Cc1ccccc1)NC(=O)[C@@H](NC(=O)CNC(=O)[C@H](CC(=O)O)NC(=O)[C@H](CO)NC(=O)[C@@H](N)Cc1c[nH]cn1)[C@@H](C)O)[C@@H](C)O)C(=O)N[C@H](C(=O)O)C(C)C [hSCT, human secretin, reference compound] | Absent | Present |  |  | 
H2N-His-Ser-Asp-Tyr-Thr-Phe-Thr-Ser-Glu-Leu-Ser-Arg-Leu-Arg-Glu-Gly-Ala-Arg-Leu-Gln-Arg-Leu-Leu-Gln-Gly-Leu-Val- COOH [Analog 14, h[Tyr^4]SCT] | Absent | Absent |  |  | 
H2N-His-Ser-Asp-D-allyl,Gly-Thr-Phe-Thr-Ser-Glu-Leu-Ser-Arg-Leu-Arg-Glu-Gly-Ala-Arg-Leu-Gln-Arg-Leu-Leu-Gln-Gly-Leu-Val- COOH [Analog 5, h[(D-allyl,Gly^4]SCT] | Absent | Absent |  |  | 
H2N-Cit-Ser-Asp-Gly-Thr-Phe-Thr-Ser-Glu-Leu-Ser-Arg-Leu-Arg-Glu-Gly-Ala-Arg-Leu-Gln-Arg-Leu-Leu-Gln-Gly-Leu-Val- COOH [Analog 10, h[Cit^1]SCT] | Absent | Absent |  |  | 
